ChEMBL document CHEMBL5390207, “Cyclotheonellazoles D-I, Potent Elastase Inhibitory Thiazole-Containing Cyclic Peptides from Theonella sp. (2131)” (J Nat Prod, 2023)
The source made the active and inactive calls. No cut-off for these calls is given here. Starred links: 1 amine or outer side, 2 acyl side, 3 side chain; linkers in the order of their positions; H or OH if unused. Positions of bridges follow the written chain, without caps; N, C: chain ends. Non-standard residues stand in square brackets, D forms with d. Residues, ends and D or L forms follow the SMILES beside them. X2 = O=C(/C=C/c1csc([C@H](Cc2ccc(O)cc2)N[*:1])n1)[*:2]; X1 = CC[C@H](C)[C@H](N[*:1])C(=O)C(=O)[*:2]; Cya = N[C@@H](CS(=O)(=O)O)C(=O)O; Nva = CCC[C@H](N)C(=O)O; Abu = CC[C@H](N)C(=O)O; Dap = NC[C@H](N)C(=O)O

How the values were obtained:
[1] = Inhibition of porcine pancreatic elastase using N-succinyl-Ala-Ala-Ala-p-nitroanilide as substrate preincubated with enzyme for 15 mins followed by substrate addition and measured for 30 mins; parameters: species or system Sus scrofa
Chymotrypsinogen A = Chymotrypsinogen A (Bos taurus, UniProt P00766); experiment: Inhibition of bovine pancreatic alpha chymotrypsin using N-succinyl-Gly-Gly-Phe-p-nitroanilide as substrate preincubated with enzyme for 10 mins followed by substrate addition and measured for 30 mins
OVCAR [2] = experiment: Cytotoxicity against human OVCAR cells assessed as cell viability upto 100 uM incubated for 72 hrs by resazurin dye based fluorescence assay; format: functional
HCT-116 [3] = experiment: Cytotoxicity against human HCT-116 cells assessed as cell viability upto 100 uM incubated for 72 hrs by resazurin dye based fluorescence assay; format: functional
MDA-MB-231 [4] = experiment: Cytotoxicity against human MDA-MB-231 cells assessed as cell viability upto 100 uM incubated for 72 hrs by resazurin dye based fluorescence assay; format: functional
[5] = biological target: Replicase polyprotein 1ab (Severe acute respiratory syndrome coronavirus 2, UniProt P0DTD1); experiment: Inhibition of SARS-CoV-2 3CLpro incubated for 4 hrs
OVCAR [6] = experiment: Cytotoxicity against human OVCAR cells assessed as cell viability at > 20 uM incubated for 72 hrs by resazurin dye based fluorescence assay; format: functional
HCT-116 [7] = experiment: Cytotoxicity against human HCT-116 cells assessed as cell viability at >20 uM incubated for 72 hrs by resazurin dye based fluorescence assay; format: functional
MDA-MB-231 [8] = experiment: Cytotoxicity against human MDA-MB-231 cells assessed as cell viability at >20 uM incubated for 72 hrs by resazurin dye based fluorescence assay; format: functional
L1210 = experiment: Cytotoxicity against mouse L1210 cells assessed as reduction in cell viability; format: functional, cell-based
KB = experiment: Cytotoxicity against human KB cells assessed as reduction in cell viability; format: functional, cell-based

Row | SMILES | IC50 [1] | IC50 (Chymotrypsinogen A) | Activity (OVCAR [2]) | Activity (HCT-116 [3]) | Activity (MDA-MB-231 [4]) | IC50 [5] | further results
1 | CCC[C@@H]1NC(=O)[C@@H](N2C(=O)N[C@@H](C)C2=O)CNC(=O)[C@H](CS(=O)(=O)O)NC(=O)/C=C/c2csc(n2)[C@H](Cc2ccc(O)cc2)NC(=O)C(=O)[C@H]([C@@H](C)CC)NC1=O | 34.8 nM | 2500 nM | inactive | inactive | inactive | – | –
2 | CC[C@H](C)[C@@H]1NC(=O)[C@H](CC(C)C)NC(=O)[C@@H](N2C(=O)N[C@@H](C)C2=O)CNC(=O)[C@H](CS(=O)(=O)O)NC(=O)/C=C/c2csc(n2)[C@H](Cc2ccc(O)cc2)NC(=O)C1=O | 17.6 nM | 1900 nM | inactive | inactive | inactive | – | –
3 | CC[C@H](C)[C@@H]1NC(=O)[C@H](CC(C)C)NC(=O)[C@@H](NC(=O)[C@H](C)N)CNC(=O)[C@H](CS(=O)(=O)O)NC(=O)/C=C/c2csc(n2)[C@H](Cc2ccc(O)cc2)NC(=O)C1=O (H-A[Dap]L[X1][X2][Cya]; lactam 2-C) | 28 nM | 2000 nM | – | – | – | 6100 nM | –
4 | CCC[C@@H]1NC(=O)[C@@H](NC(=O)[C@H](C)N)CNC(=O)[C@H](CS(=O)(=O)O)NC(=O)/C=C/c2csc(n2)[C@H](Cc2ccc(O)cc2)NC(=O)C(=O)[C@H]([C@@H](C)CC)NC1=O (H-A[Dap][Nva][X1][X2][Cya]; lactam 2-C) | 20.1 nM | 2400 nM | – | – | – | 16100 nM | –
5 | CC[C@@H]1NC(=O)[C@@H](N2C(=O)N[C@@H](C)C2=O)CNC(=O)[C@H](CS(=O)(=O)O)NC(=O)/C=C/c2csc(n2)[C@H](Cc2ccc(O)cc2)NC(=O)C(=O)[C@H]([C@@H](C)CC)NC1=O | 61.8 nM | 2700 nM | inactive | inactive | inactive | – | –
6 | O=S(=O)(F)Cc1ccccc1 [PHENYLMETHYLSULFONYLFLUORIDE] | 138 nM | 420 nM | – | – | – | – | –
7 | CC[C@@H]1NC(=O)[C@@H](NC(=O)[C@H](C)N)CNC(=O)[C@H](CS(=O)(=O)O)NC(=O)/C=C/c2csc(n2)[C@H](Cc2ccc(O)cc2)NC(=O)C(=O)[C@H]([C@@H](C)CC)NC1=O (H-A[Dap][Abu][X1][X2][Cya]; lactam 2-C) | 16 nM | 1600 nM | – | – | – | – | –
8 | CC(C)C[C@@H]1NC(=O)[C@H](NC(=O)N[C@@H](Cc2ccccc2)C(=O)O)CCCCNC(=O)[C@H](Cc2ccccc2)NC(=O)[C@H](Cc2c[nH]c3cc(Cl)ccc23)N(C)C(=O)[C@H](CC(C)C)NC1=O | – | – | – | – | – | 4600 nM | Activity (OVCAR [6]): Active; Activity (HCT-116 [7]): Active; Activity (MDA-MB-231 [8]): Active; IC50 (L1210): 500 nM; IC50 (KB): 970 nM
9 | CC(C)C[C@@H]1NC(=O)[C@H](NC(=O)N[C@@H](Cc2ccccc2)C(=O)O)CCCCNC(=O)[C@H](Cc2ccccc2)NC(=O)[C@H](Cc2c[nH]c3cc(Cl)c(O)cc23)N(C)C(=O)[C@H](CC(C)C)NC1=O | 51.3 nM | 730 nM | – | – | – | 1100 nM | –
